Data from patent publication US20080207738A1, “DRUG COMBINATIONS TO TREAT DRUG RESISTANT TUMORS” (priority 2007, published 2008).

Tests used:
[1] = test system: parent L5178 mouse T-cell lymphoma cells; assay: MTT cell viability, parent L5178 cells; details: L5178Y, 30,000 cells per well, 72 h
Description: (§1) For the determination of relative number of viable cells before and after treatments, in most cases the MTT assay was used. This calorimetric assay is based on the ability of living cells, but not dead cells, to reduce 3-(4, 5-dimethyl thiazol-2-yl)-2, 5-diphenyltetrazolium bromide [Carmichael, J, De Graff, W. G., Gazdar, A. F., Minna, J. D. and Mitchell, J. B. (1987), “Evaluation oftetrazolium-based semiautomated calorimetric assay: Assessment of chemosensitivity testing,” Cancer Res., 47, 936-942]. For this assay, cells were plated in 96-well plates (10,000-30,000 cells in case of cultured cells, 100,000 cells in case of healthy lymphocytes, and 200,000 cells in case of chronic lymphocytic leukemia or non-Hodgkin lymphocytes) in the respective incubation media. After a 24-h resting period, the cells were treated with the test agents and then incubated (in CO2 incubator under humidified atmosphere) for 72 hours (final incubation volume, 150 μl). The MTT assay was performed both with the untreated and treated cell cultures at the conclusion of the incubation. Often, the MTT assay also was performed at the start of treatments to allow assessment of proliferation rates in the control and treated cell cultures. All data presented are the average of 4 incubations (in 4 separate wells) with the same cell population.
Parent L5178 cells were seeded at 10,000 cells per well in 96-well plates and then incubated for 72 hours in the absence or presence of CCcompound104 (1 or 5 μg/ml) and various concentrations of CCcompound26 as indicated in Table 5.
(§2) Epirubicin, like doxorubicin and other antracyclins, is an MDR1 substrate. The goal of this experiment was to use epirubicin as a model compound to determine if in L5178/MDR1 cells CCcompound104 also can enhance the effects of MDR1 substrate anti-cancer agents other than CCcompound26 and other thioxanthene or thioxanthone CC compounds. The parent and MDR1 expressing cells were seeded at 30,000 cells per well in 96-well microplates and after a 24-h resting period treated with increasing concentrations of epirubicin n in the absence or presence of 5 μg/ml of CCcompound104 for 72 hours.

[2] = test system: L5178/MDR1 mouse T-cell lymphoma cells; assay: cells; details: mouse, 72 h
Description: as §1
L5178/MDR1 cells were seeded at 10,000 cells per well in 96-well plates and then incubated for 72 hours in the absence or presence of 5 μg/ml of CCcompound104 and various concentrations of CCcompound26 as indicated in Table 6.
as §2

MCF-7/ADR cells = assay: MTT cell viability, MCF-7/ADR cells; assay type: cell-based, human; details: 72 h; CCcompound104 5 μg/ml, EA 60 μM, CCcompound26/CCcompound3/CCcompound19 50 μM, alone or combined
Method: MCF/ADR cells were selected by incubating the parent MCF-7 with toxic concentrations (up to 10 μM) of adriamycin (doxorubicin). The selected drug resistant cells express both MDR1 and MRP1 among other molecular alterations as reviewed earlier [Kiss, Z., Tomono, M. and Anderson, W. B. (1994), “Phorbol ester selectively stimulates the phospholipase D-mediated hydrolysis of phosphatidylethanolamine in multidrug-resistant MCF-7 human breast carcinoma cells,” Biochem. J., 302, 649-654]. […] Ethacrynic acid (EA) alone, used at 60 μM concentration, decreased cell viability by about 24%, while CCcompound104 and EA in combination had 70% inhibitory effects (Table 7). In this cell line CCcompound104 and EA decreased cell viability synergistically.

COc1cccc2c1C(=O)c1c(O)c3c(c(O)c1C2=O)C[C@@](O)(C(=O)CO)C[C@@H]3O[C@H]1C[C@H](N)[C@@H](O)[C@H](C)O1 [Epirubicin, epirubicin, reference compound]
Inhibition (%) of viability ([1]; Epirubicin 0.156 μg/ml without or with CC104 5 μg/ml): 6.1% | Inhibition (%) of viability ([1]; Epirubicin 0.312 μg/ml without or with CC104 5 μg/ml): 41.5% | Inhibition (%) of viability ([1]; Epirubicin 0.625 μg/ml without or with CC104 5 μg/ml): 98.6% | Inhibition (%) of viability ([1]; Epirubicin 1.250 μg/ml without or with CC104 5 μg/ml): 100% | Inhibition (%) of viability ([1]; Epirubicin 2.500 μg/ml without or with CC104 5 μg/ml): 100% | Inhibition (%) of viability ([1]; Epirubicin 5.000 μg/ml without or with CC104 5 μg/ml): 100% | Inhibition (%) of viability ([2]; 0.156 µg/ml): 0% | Inhibition (%) of viability ([2]; 0.312 μg/ml): 0% | Inhibition (%) of viability ([2]; 0.625 μg/ml): 0% | Inhibition (%) of viability ([2]; 1.25 μg/ml): 0% | Inhibition (%) of viability ([2]; 2.5 μg/ml): 12.2% | Inhibition (%) of viability ([2]; 5 μg/ml): 32.4%

C[N+](C)(C)CCC=C1c2ccccc2Sc2ccccc21.[I-] [CCcompound19, N,N,N-trimethyl-3-(9H-thioxanthen-9-ylidene)-propan-1-aminium iodide]
Inhibition (%) of viability (MCF-7/ADR cells): 20.2%
